US12371428B2 (Exelixis, Inc., priority 2019, dated 2025)

What was measured:
[1] = target: Met (phospho-Met, HGF-stimulated PC-3 prostate cancer cells) (Homo sapiens (Human), UniProt P08581); experiment: Met autophosphorylation ELISA in PC-3 cells (Example F); format: cell-based; conditions: cellular activity; Met autophosphorylation ELISA in PC-3 cells; read-out: c-Met IC50
Method in brief: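 Serum-starved (3 h) PC-3 cells were treated 1 h with compounds (8-point curve, 0.3% DMSO), then stimulated with 100 ng/mL human HGF for 10 min. Lysate phospho-Met (panTyr) was measured by sandwich ELISA, normalised to DMSO and reference-inhibitor controls. IC50 came from 4-parameter logistic fit.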

[2] = target: Human MER (residues 528-999) (Homo sapiens (Human), UniProt Q12866); experiment: Human Mer kinase assay, HTRF KinEase (Example C-2); format: biochemical; conditions: protocol of Example C-2 (other compounds)
Human MER (residues 528-999), sequence (Q12866 528-999): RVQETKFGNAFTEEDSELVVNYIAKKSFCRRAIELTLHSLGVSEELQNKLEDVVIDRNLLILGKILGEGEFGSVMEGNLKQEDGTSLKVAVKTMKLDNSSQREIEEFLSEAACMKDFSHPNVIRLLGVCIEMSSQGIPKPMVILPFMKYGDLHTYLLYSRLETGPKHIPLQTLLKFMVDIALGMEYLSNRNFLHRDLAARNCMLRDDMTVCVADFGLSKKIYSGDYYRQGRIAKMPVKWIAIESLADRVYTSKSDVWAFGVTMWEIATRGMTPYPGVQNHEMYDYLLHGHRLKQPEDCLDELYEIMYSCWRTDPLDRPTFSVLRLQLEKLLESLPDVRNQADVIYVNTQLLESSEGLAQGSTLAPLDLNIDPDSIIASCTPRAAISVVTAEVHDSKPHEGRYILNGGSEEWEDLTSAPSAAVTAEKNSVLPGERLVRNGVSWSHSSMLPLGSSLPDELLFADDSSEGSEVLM
Method in brief: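 Recombinant MER 528-999 (1 ng/well) in buffer with 5 mM MgCl2 and 1 mM DTT was reacted with biotinylated peptide and ATP at Km (40 μM) for 60 min at room temperature. EDTA stop with SA-XL665 and Eu3+ TK antibody, then 665/620 nm HTRF read; IC50 from 4-parameter fit.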

Met (phospho-Met, HGF-stimulated PC-3 prostate cancer cells), sequence (P08581 25-1390): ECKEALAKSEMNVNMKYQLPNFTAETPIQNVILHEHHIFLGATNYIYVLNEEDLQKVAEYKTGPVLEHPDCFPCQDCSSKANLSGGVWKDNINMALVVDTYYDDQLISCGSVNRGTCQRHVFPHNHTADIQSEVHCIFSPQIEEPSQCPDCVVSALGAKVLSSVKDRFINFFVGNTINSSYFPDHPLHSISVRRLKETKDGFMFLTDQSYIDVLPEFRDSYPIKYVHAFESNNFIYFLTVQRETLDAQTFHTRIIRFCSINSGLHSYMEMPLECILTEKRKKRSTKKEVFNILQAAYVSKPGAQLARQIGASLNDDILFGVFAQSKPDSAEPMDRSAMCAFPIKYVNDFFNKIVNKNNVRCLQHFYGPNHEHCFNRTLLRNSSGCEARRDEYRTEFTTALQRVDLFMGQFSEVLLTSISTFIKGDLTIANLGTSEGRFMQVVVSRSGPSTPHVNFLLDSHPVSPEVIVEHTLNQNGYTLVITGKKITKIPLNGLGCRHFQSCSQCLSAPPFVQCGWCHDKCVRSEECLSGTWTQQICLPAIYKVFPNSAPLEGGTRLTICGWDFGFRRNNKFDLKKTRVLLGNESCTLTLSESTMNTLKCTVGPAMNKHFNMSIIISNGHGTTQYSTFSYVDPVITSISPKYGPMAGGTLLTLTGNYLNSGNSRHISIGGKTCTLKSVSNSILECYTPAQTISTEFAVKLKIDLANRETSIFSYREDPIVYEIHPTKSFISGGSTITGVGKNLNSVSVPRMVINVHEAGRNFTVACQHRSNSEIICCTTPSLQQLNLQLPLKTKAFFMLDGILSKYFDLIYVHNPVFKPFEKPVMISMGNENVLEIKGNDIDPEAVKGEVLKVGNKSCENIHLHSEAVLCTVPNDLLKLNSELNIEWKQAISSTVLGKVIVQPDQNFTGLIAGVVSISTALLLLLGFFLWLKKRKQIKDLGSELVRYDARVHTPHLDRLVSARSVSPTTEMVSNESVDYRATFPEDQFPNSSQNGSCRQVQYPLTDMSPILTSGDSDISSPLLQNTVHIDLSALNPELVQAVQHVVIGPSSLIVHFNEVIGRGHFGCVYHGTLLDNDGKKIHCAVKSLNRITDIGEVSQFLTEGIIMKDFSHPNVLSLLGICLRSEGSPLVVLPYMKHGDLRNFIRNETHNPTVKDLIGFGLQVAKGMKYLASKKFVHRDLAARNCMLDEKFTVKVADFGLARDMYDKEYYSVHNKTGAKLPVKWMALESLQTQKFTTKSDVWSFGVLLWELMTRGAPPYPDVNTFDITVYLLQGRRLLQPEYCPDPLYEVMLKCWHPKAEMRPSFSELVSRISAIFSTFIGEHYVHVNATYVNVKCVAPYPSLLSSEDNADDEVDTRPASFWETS

Compound	IC50 [1]	IC50 [2]
COCc1nc(C)c(-c2ccc(F)cc2C)c(O)c1C(=O)Nc1ccc(Oc2ccnc3cc(OC)c(OC)nc23)c(F)c1 [Compound 191, N-[4-[(6,7-Dimethoxy-1,5-naphthyridin-4-yl)oxy]-3-fluorophenyl]-5-(4-fluoro-2-methylphenyl)-4-hydroxy-2-(methoxymethyl)-6-methylpyridine-3-carboxamide]	< 0.1 µM	< 0.1 µM
CCc1nc(C)c(-c2ccc(F)cc2C)c(O)c1C(=O)Nc1ccc(Oc2ccnc3cc(OC)cnc23)c(F)c1 [Compound 204, 2-Ethyl-N-[3-fluoro-4-[(7-methoxy-1,5-naphthyridin-4-yl)oxy]phenyl]-5-(4-fluoro-2-methylphenyl)-4-hydroxy-6-methylpyridine-3-carboxamide]	< 0.1 µM	< 0.1 µM
COc1ccc2nccc(Oc3ccc(NC(=O)c4c(C)n(C)cc(-c5ccc(F)cc5)c4=O)cc3F)c2n1 [Compound 243, N-[3-Fluoro-4-[(6-methoxy-1,5-naphthyridin-4-yl)oxy]phenyl]-5-(4-fluorophenyl)-1,2-dimethyl-4-oxopyridine-3-carboxamide]	< 0.1 µM	< 0.1 µM
CCc1nc(C)c(-c2ccc(F)cc2)c(O)c1C(=O)Nc1ccc(Oc2ccnc3cc(OC)cnc23)c(F)c1 [Compound 180, 2-Ethyl-N-[3-fluoro-4-[(7-methoxy-1,5-naphthyridin-4-yl)oxy]phenyl]-5-(4-fluorophenyl)-4-hydroxy-6-methylpyridine-3-carboxamide]	< 0.1 µM	< 0.1 µM
COc1cnc2c(Oc3ccc(NC(=O)c4ccc(C)n(-c5ccc(F)cc5C)c4=O)cc3)ccnc2c1 [Compound 226, 1-(4-Fluoro-2-methylphenyl)-N-[4-[(7-methoxy-1,5-naphthyridin-4-yl)oxy]phenyl]-6-methyl-2-oxopyridine-3-carboxamide]	< 0.1 µM	< 0.1 µM
COCc1nc(C)c(-c2ccc(F)cc2)c(O)c1C(=O)Nc1ccc(Oc2ccnc3cc(OC)c(OC)nc23)cc1 [Compound 190, N-[4-[(6,7-Dimethoxy-1,5-naphthyridin-4-yl)oxy]phenyl]-5-(4-fluorophenyl)-4-hydroxy-2-(methoxymethyl)-6-methylpyridine-3-carboxamide]	< 0.1 µM	< 0.1 µM
